Results taken from ChEMBL document CHEMBL1909046, “DrugMatrix in vitro pharmacology data”.

What was measured:
[1] = DRUGMATRIX: Nicotinic Acetylcholine radioligand binding (ligand: [125I] Epibatidine); assay type: cell membranes, Membrane; conditions: imr-32, Not Active = under 50% inhibition at 10 µM
[2] = biological target: T1, Cysteinyl leukotriene receptor 1 (Homo sapiens, UniProt Q9Y271); assay type: cell membranes, CHO-K1, Membrane; further: in other assays of this panel Not Active means under 50% inhibition at 10 µM
T1 sequence (Q9Y271 whole entry): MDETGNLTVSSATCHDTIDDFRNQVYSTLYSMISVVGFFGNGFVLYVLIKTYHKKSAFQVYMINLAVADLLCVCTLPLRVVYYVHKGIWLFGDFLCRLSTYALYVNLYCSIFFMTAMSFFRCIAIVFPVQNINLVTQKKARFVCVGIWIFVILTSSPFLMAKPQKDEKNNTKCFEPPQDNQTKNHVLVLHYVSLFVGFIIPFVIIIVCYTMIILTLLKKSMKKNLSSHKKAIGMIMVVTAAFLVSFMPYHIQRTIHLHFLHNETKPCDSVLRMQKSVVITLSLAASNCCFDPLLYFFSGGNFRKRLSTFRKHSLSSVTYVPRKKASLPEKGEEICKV

Thromboxane-A synthase = biological target: T2, Thromboxane-A synthase (Homo sapiens, UniProt P24557); test: biochemical; assay type: tissue-based, Platelet;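 further: enzyme inhibition assay with PGH2 supplied as substrate; in other assays of this panel Not Active means under 50% inhibition at 10 µM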
T2 sequence (P24557 whole entry): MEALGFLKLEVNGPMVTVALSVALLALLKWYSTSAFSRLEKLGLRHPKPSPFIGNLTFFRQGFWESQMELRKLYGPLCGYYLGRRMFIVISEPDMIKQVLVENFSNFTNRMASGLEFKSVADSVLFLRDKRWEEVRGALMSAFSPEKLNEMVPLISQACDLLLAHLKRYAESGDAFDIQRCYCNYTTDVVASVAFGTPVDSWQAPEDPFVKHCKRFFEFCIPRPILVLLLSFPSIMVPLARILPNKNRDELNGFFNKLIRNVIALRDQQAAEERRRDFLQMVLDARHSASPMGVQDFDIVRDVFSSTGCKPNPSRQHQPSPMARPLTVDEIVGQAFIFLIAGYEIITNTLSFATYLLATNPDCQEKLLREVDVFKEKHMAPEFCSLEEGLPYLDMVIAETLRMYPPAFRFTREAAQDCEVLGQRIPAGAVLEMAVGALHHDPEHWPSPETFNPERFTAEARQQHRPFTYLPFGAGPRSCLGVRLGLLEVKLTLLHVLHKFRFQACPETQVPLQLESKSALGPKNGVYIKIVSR

[3] = biological target: Prostaglandin G/H synthase 1 (Homo sapiens, UniProt P23219); test: biochemical; assay type: tissue-based, Platelet; conditions: platelet;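 further: inhibition of COX-1 enzyme activity, with arachidonic acid supplied as substrate; in other assays of this panel Not Active means under 50% inhibition at 10 µM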
Sequence of Prostaglandin G/H synthase 1 (P23219 whole entry): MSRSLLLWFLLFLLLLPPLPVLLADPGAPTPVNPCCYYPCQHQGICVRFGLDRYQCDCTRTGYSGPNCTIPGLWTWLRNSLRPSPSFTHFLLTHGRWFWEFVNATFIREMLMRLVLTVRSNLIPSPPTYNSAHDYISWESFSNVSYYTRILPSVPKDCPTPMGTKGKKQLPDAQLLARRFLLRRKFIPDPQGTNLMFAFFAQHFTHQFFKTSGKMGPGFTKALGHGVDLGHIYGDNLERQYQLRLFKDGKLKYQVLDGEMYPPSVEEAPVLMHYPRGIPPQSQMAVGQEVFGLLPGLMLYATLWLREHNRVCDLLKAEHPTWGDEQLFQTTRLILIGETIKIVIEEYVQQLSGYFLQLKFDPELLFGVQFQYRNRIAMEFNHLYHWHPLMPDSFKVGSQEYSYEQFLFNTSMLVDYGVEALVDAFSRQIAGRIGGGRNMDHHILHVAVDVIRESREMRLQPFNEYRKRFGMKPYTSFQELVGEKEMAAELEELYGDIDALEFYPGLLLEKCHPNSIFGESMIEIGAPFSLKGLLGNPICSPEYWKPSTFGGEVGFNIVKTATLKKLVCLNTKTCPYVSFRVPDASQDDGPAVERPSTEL

Adenosine receptor A3 = biological target: T3, Adenosine receptor A3 (Homo sapiens, UniProt P0DMS8); assay type: cell membranes, CHO-K1, Membrane;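 further: radioligand binding assay with AB-MECA serving as the labeled ligand; in other assays of this panel Not Active means under 50% inhibition at 10 µM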
T3 sequence (P0DMS8 whole entry): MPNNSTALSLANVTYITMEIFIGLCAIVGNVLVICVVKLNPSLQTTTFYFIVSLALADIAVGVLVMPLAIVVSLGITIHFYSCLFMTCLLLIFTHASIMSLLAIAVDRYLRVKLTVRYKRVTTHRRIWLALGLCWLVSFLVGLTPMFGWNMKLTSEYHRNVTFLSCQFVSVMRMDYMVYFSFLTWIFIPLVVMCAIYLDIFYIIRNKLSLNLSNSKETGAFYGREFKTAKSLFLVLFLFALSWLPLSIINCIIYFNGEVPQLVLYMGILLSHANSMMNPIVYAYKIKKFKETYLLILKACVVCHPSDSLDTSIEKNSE

Interstitial collagenase = biological target: T4, Interstitial collagenase (Homo sapiens, UniProt P03956); test: biochemical; assay type: tissue-based, Rheumatoid synovial fibroblasts
T4 sequence (P03956 whole entry): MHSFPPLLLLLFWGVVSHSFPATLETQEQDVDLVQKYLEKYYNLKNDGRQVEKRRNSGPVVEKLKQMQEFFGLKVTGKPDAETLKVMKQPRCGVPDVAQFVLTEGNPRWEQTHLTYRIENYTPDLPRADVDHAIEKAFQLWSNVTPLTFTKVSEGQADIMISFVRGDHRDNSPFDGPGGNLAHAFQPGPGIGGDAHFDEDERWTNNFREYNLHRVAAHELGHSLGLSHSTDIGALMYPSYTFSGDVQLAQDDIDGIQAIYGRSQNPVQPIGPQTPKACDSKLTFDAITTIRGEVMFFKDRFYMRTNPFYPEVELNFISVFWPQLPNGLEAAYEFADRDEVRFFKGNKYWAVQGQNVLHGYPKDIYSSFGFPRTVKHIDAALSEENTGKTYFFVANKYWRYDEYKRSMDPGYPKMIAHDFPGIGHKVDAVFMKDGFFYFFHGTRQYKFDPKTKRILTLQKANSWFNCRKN

Molecule | IC50 ([1]; read-out: IC50) [nM] | Ki ([1]; read-out: Ki) [nM] | IC50 ([2]; cho-k1) | IC50 (Thromboxane-A synthase; platelet) | IC50 [3] | IC50 (Adenosine receptor A3; cho-k1) | IC50 (Interstitial collagenase) | IC50 [1] | Ki [1] | Ki ([2]; cho-k1) | Ki (Thromboxane-A synthase; platelet) | Ki [3] | Ki (Adenosine receptor A3; cho-k1) | Ki (Interstitial collagenase) | IC50 (Adenosine receptor A3; read-out: IC50) [nM] | Ki (Adenosine receptor A3; read-out: Ki) [nM] | IC50 ([2]; read-out: IC50) [nM] | Ki ([2]; read-out: Ki) [nM] | IC50 (Thromboxane-A synthase; read-out: IC50) [nM]
C[N+](C)(C)CCOC(N)=O.[Cl-] [CARBACHOL] | 1000 | 334 | Not Active | Not Active | Not Active | Not Active | Not Active |  |  |  |  |  |  |  |  |  |  |  | 
CC(=O)[C@]1(O)Cc2c(O)c3c(c(O)c2[C@@H](O[C@H]2C[C@H](N)[C@H](O)[C@H](C)O2)C1)C(=O)c1ccccc1C3=O [IDARUBICIN] |  |  | Not Active | Not Active | Not Active | Not Active | Not Active | Not Active | Not Active |  |  |  |  |  |  |  |  |  | 
NS(=O)(=O)c1cc(C(=O)O)c(NCc2ccco2)cc1Cl [FUROSEMIDE] |  |  | Not Active | Not Active | Not Active | Not Active | Not Active | Not Active | Not Active |  |  |  |  |  |  |  |  |  | 
O=C1CN(/N=C/c2ccc([N+](=O)[O-])o2)C(=O)N1 [NITROFURANTOIN] |  |  | Not Active | Not Active | Not Active | Not Active | Not Active | Not Active | Not Active |  |  |  |  |  |  |  |  |  | 
CARBOXYMETHYLCELLULOSE |  |  | Not Active | Not Active | Not Active | Not Active | Not Active | Not Active | Not Active | Not Active | Not Active | Not Active | Not Active | Not Active |  |  |  |  | 
c1ccc2sc(SSc3nc4ccccc4s3)nc2c1 [BENZOTHIAZYL DISULFIDE] |  |  | Not Active | Not Active | Not Active |  | Not Active | Not Active | Not Active |  |  |  |  |  | 347 | 196 |  |  | 
CC12CCC(CC1)C(C)(C)O2 [EUCALYPTOL] |  |  | Not Active | Not Active | Not Active | Not Active | Not Active | Not Active | Not Active |  |  |  |  |  |  |  |  |  | 
CC(=O)Nc1ccc2c(c1)Cc1ccccc1-2 [2-ACETYLAMINOFLUORENE] |  |  | Not Active | Not Active | Not Active | Not Active | Not Active | Not Active | Not Active |  |  |  |  |  |  |  |  |  | 
CCN1C[C@]2(COC)[C@H](O)C[C@H](OC)[C@@]34[C@@H]5C[C@@]6(O)[C@H](OC(=O)c7ccccc7)[C@@H]5[C@@](OC(C)=O)([C@@H]([C@H](OC)[C@H]23)[C@@H]14)[C@@H](O)[C@@H]6OC [ACONITINE] |  |  | Not Active | Not Active | Not Active | Not Active | Not Active | Not Active | Not Active |  |  |  |  |  |  |  |  |  | 
COc1ccccc1OCCNCC(O)COc1cccc2[nH]c3ccccc3c12 (stereo unspecified) [CARVEDILOL] |  |  | Not Active | Not Active | Not Active | Not Active | Not Active | Not Active | Not Active |  |  |  |  |  |  |  |  |  | 
CC(N)Cc1c[nH]c2ccc(OCc3cccs3)cc12 (stereo unspecified) [BW-723C86] |  |  | Not Active | Not Active | Not Active | Not Active | Not Active | Not Active | Not Active |  |  |  |  |  |  |  |  |  | 
C=C(Cl)Cl [1,1-DICHLOROETHENE] |  |  | Not Active | Not Active | Not Active | Not Active | Not Active | Not Active | Not Active |  |  |  |  |  |  |  |  |  | 
Nc1ccc(Cc2ccc(N)cc2)cc1 |  |  | Not Active | Not Active | Not Active | Not Active | Not Active | Not Active | Not Active |  |  |  |  |  |  |  |  |  | 
Nc1nc(N)c2nc(CNc3ccc(C(=O)N[C@@H](CCC(=O)O)C(=O)O)cc3)cnc2n1 [AMINOPTERIN] |  |  | Not Active | Not Active | Not Active | Not Active | Not Active | Not Active | Not Active |  |  |  |  |  |  |  |  |  | 
CCN(CCO)CCCC(C)Nc1ccnc2cc(Cl)ccc12 (stereo unspecified) [HYDROXYCHLOROQUINE] |  |  | Not Active | Not Active | Not Active | Not Active | Not Active | Not Active | Not Active |  |  |  |  |  |  |  |  |  | 
COPPER(II) OXIDE |  |  | Not Active | Not Active | Not Active | Not Active | Not Active | Not Active | Not Active | Not Active | Not Active | Not Active | Not Active | Not Active |  |  |  |  | 
CN(CCOc1ccc(C[C@H](Nc2ccccc2C(=O)c2ccccc2)C(=O)O)cc1)c1ccccn1 |  |  |  |  | Not Active |  | Not Active | Not Active | Not Active |  |  |  |  |  | 14300 | 8090 | 10900 | 5450 | 2950
COc1cc([C@@H]2c3cc4c(cc3[C@H](O)[C@H]3COC(=O)[C@H]23)OCO4)cc(OC)c1OC [PODOFILOX] |  |  | Not Active | Not Active | Not Active | Not Active | Not Active | Not Active | Not Active |  |  |  |  |  |  |  |  |  | 
ClC1=C(Cl)[C@]2(Cl)[C@@H]3[C@@H]4C[C@@H]([C@H]5O[C@@H]45)[C@@H]3[C@@]1(Cl)C2(Cl)Cl [DIELDRIN] |  |  | Not Active | Not Active | Not Active | Not Active | Not Active | Not Active | Not Active |  |  |  |  |  |  |  |  |  | 
CCN1CCN(c2cc3c(cc2F)c(=O)c(C(=O)O)cn3C2CC2)CC1 [ENROFLOXACIN] |  |  | Not Active | Not Active | Not Active | Not Active | Not Active | Not Active | Not Active |  |  |  |  |  |  |  |  |  | 
C[C@H]1C[C@H]2[C@@H]3CCC4=CC(=O)C=C[C@]4(C)[C@@]3(F)[C@@H](O)C[C@]2(C)[C@@]1(O)C(=O)CO [BETAMETHASONE] |  |  | Not Active | Not Active | Not Active | Not Active | Not Active | Not Active | Not Active |  |  |  |  |  |  |  |  |  | 
OC[C@H]1O[C@@H]2O[C@H]3[C@H](O)[C@@H](O)[C@@H](O[C@H]4[C@H](O)[C@@H](O)[C@@H](O[C@H]5[C@H](O)[C@@H](O)[C@@H](O[C@H]6[C@H](O)[C@@H](O)[C@@H](O[C@H]7[C@H](O)[C@@H](O)[C@@H](O[C@H]8[C@H](O)[C@@H](O)[C@@H](O[C@H]1[C@H](O)[C@H]2O)O[C@@H]8CO)O[C@@H]7CO)O[C@@H]6CO)O[C@@H]5CO)O[C@@H]4CO)O[C@@H]3CO [BETADEX] |  |  | Not Active | Not Active | Not Active | Not Active | Not Active | Not Active | Not Active |  |  |  |  |  |  |  |  |  | 
c1ccc(Cn2ccnc2)cc1 |  |  | Not Active |  | Not Active | Not Active | Not Active | Not Active | Not Active |  |  |  |  |  |  |  |  |  | 602
C=CCN1CC[C@]23c4c5ccc(O)c4O[C@H]2/C(=N/N=C2\CC[C@@]4(O)[C@H]6Cc7ccc(O)c8c7[C@@]4(CCN6CC=C)[C@H]2O8)CC[C@@]3(O)[C@H]1C5 [NALOXONAZINE] |  |  | Not Active | Not Active | Not Active | Not Active | Not Active | Not Active | Not Active |  |  |  |  |  |  |  |  |  | 
